# Reference: patent US20230381275A1, “MUSCULAR FUNCTION IMPROVING AGENT FOR SKELETAL MUSCLE OF WHICH FUNCTION IS DEGRADED DUE TO AGING” (OSAKA UNIVERSITY, priority 2020, published 2023)
# What was measured:
# [1] = tested on: animal models of injured skeletal muscle; details: local administration, Non-Patent Document 7, Patent Document 5; cited from earlier work
# [2] = tested on: aging-accelerated model mice; experiment: Mean cross-sectional area of muscle fibers, HE staining, 51-week-old mice (Example 5); format: in vivo
# Procedure: In this example, the training schedule and SV peptide administration concentration were changed from Example 4, and exercise evaluation (endurance evaluation) was conducted in aging-accelerated model mice when SV peptide was continuously administered. In addition, the cross-sectional area of muscle fibers (gastrocnemius (type I, type IIa, type IIb), extensor digitorum longus, and tibialis anterior muscles) were evaluated in mice that continued training and SV peptide administration until 51 weeks of age.
# Aging-accelerated model mice were trained on a treadmill (MK-680; Muromachi Kikai Co., Ltd.) (18 m/min×90 min) and subsequent SV peptide administration was performed according to the schedule in the following table. 30 weeks of age and thereafter, training was performed continuously from Monday to Friday of each week. SV peptide was added to PBS to adjust to a concentration of 1 μg/ml for an injection formulation and localized to the bilateral leg muscles of each mouse anesthetized by inhalation with sevoflurane immediately after training on Tuesday and Friday (SV group; twice weekly administration). Exercise evaluations were performed every other Friday.
# The gastrocnemius, extensor digitorum longus, and tibialis anterior muscles of the lower limbs were removed from 51-week-old aging-accelerated model mice, and after sections were prepared according to the standard method, the cross-sectional area of muscle fibers was measured by HE staining. […] The mean cross-sectional area of muscle fibers was also measured for each type of gastrocnemius muscle fiber (type I, type IIa, and type IIb). The mean cross-sectional area of muscle fibers was the mean of more than 50 fibers of each muscle fiber type.
# [3] = tested on: aging-accelerated model mice (SAMP10); experiment: Number of collisions during treadmill running, weekly test (Example 1); format: in vivo; details: after 30 weeks of age (tested to 35 weeks), SV peptide 20 ng/ml injected into bilateral lower limb muscles after treadmill training, vs PBS control group, FIG. 1
# Procedure: In this example, a peptide consisting of the amino acid sequence of SVVYGLR (SEQ ID No.: 1) (SV peptide) was administered to aging-accelerated model mice, and their effects on restoring muscle function were confirmed.
# SV peptide was synthesized by the Fmoc method using a multi-species solid-phase automated peptide synthesizer (PSSM-8; Shimadzu Corp.) SV peptide was added to PBS and adjusted to 20 ng/ml to prepare an injection formulation.
# Aging-accelerated model mice (SAMP10 21 weeks old) were used to perform training on a treadmill (MK-680; Muromachi Kikai Co., Ltd.) and subsequent SV peptide administration according to the schedule in the following table. […]
# Once a week, the mice were tested on a treadmill to measure the number of collisions. After SV peptide injection, the mice have trained on the treadmill again (18 m/min×90 min), and the number of times the mice collided with the treadmill wall due to being unable to run at a speed equal to or faster than that of the belt was measured during treadmill training. […] In the control group, after training on the treadmill in the same manner as the experimental group, PBS was injected into the bilateral lower limb muscles instead of SV peptide, and the number of collisions was measured once a week.
# [4] = tested on: aging-accelerated model mice (SAMP10); experiment: Number of collisions on treadmill retest 12, 24 or 72 hours after local injection (Example 2); format: in vivo; details: SAMP10 36 weeks old, SV peptide total 40 ng into bilateral lower limb muscles, vs PBS control, FIG. 2
# Procedure: In this example, SV peptide was administered to aging-accelerated model mice, and the recovery effect of muscle function after a certain period of time by the administration was confirmed.
# Treadmill running was performed using aging-accelerated model mice (SAMP10 36 weeks old) under the same conditions as the first basic training of 35-week-old mice in Example 1, and SV peptide (total 40 ng) was injected into the bilateral lower limb muscles immediately after treadmill running (experimental group).
# SV peptide was administered at the same site and dose as in the 35-week-old mice of Example 1. The number of collisions was evaluated by retesting treadmill running (18 m/min×90 min) at 12, 24, or 72 hours after local injection. In the control group, after treadmill running as in the experimental group, PBS was injected into the bilateral leg muscles instead of SV peptide, and the number of collisions on the treadmill was measured 12, 24, or 72 hours after the injection.
# [5] = tested on: aging-accelerated model mice; experiment: Endurance evaluation test on treadmill (Example 6); format: in vivo; details: SV group, SV peptide 2 μg/ml one dose every other week plus training
# Procedure: In this example, the number of SV peptide doses and dosage in Example 4 was changed as shown in the following table, and exercise evaluation (endurance evaluation) was performed when SV peptide was continuously administered to aging-accelerated model mice. The conditions other than the number of SV peptide doses and dosage were the same as in Example 4.
# Specifically, SV peptide was added to PBS to adjust to a concentration of 2 μg/ml for the injectable formulation, and localized to the bilateral lower limb muscles of each mouse anesthetized by inhalation with sevoflurane immediately after training on Friday every other week (even weeks) (SV group; one dose every other week).
# The results of the endurance evaluation test are shown in FIG. 12 with a graph showing the mean running distance for the SV group (n=3) and the PBS group (n=4). A graph showing the difference between the mean running distance on the reference date (30 weeks old) and the mean running distance in each test is also shown in FIG. 13.
# [6] = tested on: aging-accelerated model mice (SAMP10); experiment: Mean cross-sectional area of muscle fibers, HE staining, 40-week-old mice (Example 3); format: in vivo; details: 40-week-old SAMP10 mice; treadmill training plus SV peptide 20 ng/ml; vs PBS control; FIG. 3B
# Procedure: In this example, we evaluated muscle fibers in aging-accelerated model mice after continuous administration of SV peptide.
# Aging-accelerated model mice (SAMP10 21 weeks old) were trained on a treadmill (MK-680; Muromachi Kikai Co., Ltd.) (18 m/min×90 min) and subsequent SV peptide administration was performed according to the same schedule as in Example 1. After 36 weeks of age, training on the treadmill and subsequent SV peptide administration were conducted under the same conditions as at 35 weeks of age, and continued until the aging-accelerated model mice reached 40 weeks of age. In the control group, after training under the same conditions as the experimental group, PBS was injected into the bilateral lower limb muscles instead of SV peptide.
# The gastrocnemius and soleus muscles of the lower limbs were then removed from 40-week-old aging-accelerated model mice, sections were prepared according to the standard method, and HE staining was performed.
# [7] = SV group vs PBS group, mean of more than 50 fibers, FIGS. 10 and 11
# [8] = SV peptide 1 μg/ml plus training from 28 to 51 weeks, vs PBS group, FIG. 9
substance,measurement,setting,value
"SVVYGLR [SV peptide, peptide consisting of 7 amino acids (SVVYGLR]",diameter of regenerated muscle fibers,[1],significantly higher
same,muscle tissue regeneration,[1],promotes muscle tissue regeneration
same,cross-sectional area of type I gastrocnemius muscle fibers,[2]; [7],increased compared to the PBS group
same,cross-sectional area of type IIa gastrocnemius muscle fibers,[2]; [7],increased compared to the PBS group
same,cross-sectional area of type IIb gastrocnemius muscle fibers,[2]; [7],increased compared to the PBS group
same,"mean cross-sectional area of muscle fibers, extensor digitorum longus muscle",[2]; [8],significantly larger than that in the PBS group
same,"mean cross-sectional area of muscle fibers, gastrocnemius muscle",[2]; [8],significantly larger than that in the PBS group
same,"mean cross-sectional area of muscle fibers, tibialis anterior muscle",[2]; [8],significantly larger than that in the PBS group
same,number of collisions during treadmill running,[3],significant suppression of the increase in the number of collisions compared to the control group
same,number of collisions during treadmill running,[4]; 12 hours after local injection,significantly reduced
same,number of collisions during treadmill running,[4]; 24 hours after local injection,significantly reduced
same,number of collisions during treadmill running,[4]; 72 hours after local injection,significantly reduced
same,mean running distance,[5]; after 49 weeks of age,able to maintain the same mean running distance as the 30-week-old group
same,mean running distance,"[5]; from 31 to 48 weeks of age, FIGS. 12 and 13",increased significantly
same,mean cross-sectional area of fast muscle fibers (gastrocnemius muscle),[6],significantly higher than in the control group
same,mean cross-sectional area of slow muscle fibers (soleus muscle),[6],significantly higher than in the control group
